Source: the supplement of paper PMC11451515

Tested on: P12-Ichikawa
Assay: cell viability relative to DMSO control; higher = less cytotoxic
Conditions: 48 h
Procedure, shortened: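 Viability values are per-plate percentages of DMSO wells, with background from cell-free wells. Library compounds in DMSO were pin-dosed, in an 11-point threefold series from 47 μM to 0.79 nM, onto NOMO1 or SEM (500 cells/well) or P12-Ichikawa (1000 cells/well) leukemia cells in 1536-well plates (5 μl). Those cells had been adapted for at least four passages in each medium, and CellTiter-Glo One luminescence was read after 48 h at 37°C.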

[1] = HPLM + 10% dialyzed FBS, 0.000781 µM
[2] = HPLM + 10% dialyzed FBS, 0.00234 µM
[3] = HPLM + 10% dialyzed FBS, 0.00702 µM
[4] = HPLM + 10% dialyzed FBS, 0.0211 µM
[5] = HPLM + 10% dialyzed FBS, 0.0632 µM
[6] = HPLM + 10% dialyzed FBS, 0.19 µM
[7] = HPLM + 10% dialyzed FBS, 0.569 µM
[8] = HPLM + 10% dialyzed FBS, 1.71 µM
[9] = HPLM + 10% dialyzed FBS, 5.12 µM
[10] = HPLM + 10% dialyzed FBS, 15.4 µM
[11] = HPLM + 10% dialyzed FBS, 46.1 µM
[12] = RPMI 5 mM glucose + 10% FBS, 0.000781 µM
[13] = RPMI 5 mM glucose + 10% FBS, 0.00234 µM
[14] = RPMI 5 mM glucose + 10% FBS, 0.00702 µM
[15] = RPMI 5 mM glucose + 10% FBS, 0.0211 µM
[16] = RPMI 5 mM glucose + 10% FBS, 0.0632 µM
[17] = RPMI 5 mM glucose + 10% FBS, 0.19 µM
[18] = RPMI 5 mM glucose + 10% FBS, 0.569 µM
[19] = RPMI 5 mM glucose + 10% FBS, 1.71 µM
[20] = RPMI 5 mM glucose + 10% FBS, 5.12 µM
[21] = RPMI 5 mM glucose + 10% FBS, 15.4 µM
[22] = RPMI 5 mM glucose + 10% FBS, 46.1 µM
[23] = RPMI 5 mM glucose + 10% dialyzed FBS, 0.000781 µM
[24] = RPMI 5 mM glucose + 10% dialyzed FBS, 0.00234 µM
[25] = RPMI 5 mM glucose + 10% dialyzed FBS, 0.00702 µM
[26] = RPMI 5 mM glucose + 10% dialyzed FBS, 0.0211 µM
[27] = RPMI 5 mM glucose + 10% dialyzed FBS, 0.0632 µM
[28] = RPMI 5 mM glucose + 10% dialyzed FBS, 0.19 µM
[29] = RPMI 5 mM glucose + 10% dialyzed FBS, 0.569 µM
[30] = RPMI 5 mM glucose + 10% dialyzed FBS, 1.71 µM
[31] = RPMI 5 mM glucose + 10% dialyzed FBS, 5.12 µM
[32] = RPMI 5 mM glucose + 10% dialyzed FBS, 15.4 µM
[33] = RPMI 5 mM glucose + 10% dialyzed FBS, 46.1 µM

Row | Compound | cell viability [1] | cell viability [2] | cell viability [3] | cell viability [4] | cell viability [5] | cell viability [6] | cell viability [7] | cell viability [8] | cell viability [9] | cell viability [10] | cell viability [11] | cell viability [12] | cell viability [13] | cell viability [14] | cell viability [15] | cell viability [16] | cell viability [17] | cell viability [18] | cell viability [19] | cell viability [20] | cell viability [21] | cell viability [22] | cell viability [23] | cell viability [24] | cell viability [25] | cell viability [26] | cell viability [27] | cell viability [28] | cell viability [29] | cell viability [30] | cell viability [31] | cell viability [32] | cell viability [33]
1 | COC1=CC=C(C=C1)C2CC(=N/N2C3=CC=C(C=C3)[S+](N)([O-])=O)\C4=CC=CC=C4 (stereo unspecified) | 95.3% | 91.6% | 102% | 102% | 99.5% | 108% | 108% | 83.8% | 63.1% | 4.53% | 2.18% | 101% | 90% | 94% | 94.4% | 106% | 89.6% | 99.8% | 67.8% | 42% | 3.73% | 1.01% | 85.6% | 96.2% | 96.6% | 100% | 95.9% | 85.9% | 91.4% | 65.8% | 35.8% | 4.09% | 1.97%
2 | O=C(CCc1ccc(O)cc1)c1c(O)cc(O)cc1O[C@@H]1O[C@H](CO)[C@@H](O)[C@H](O)[C@H]1O | 96.3% | 96.6% | 94.1% | 92.8% | 88% | 96.3% | 86.2% | 84% | 85.1% | 81.9% | 85.5% | 90.2% | 85.4% | 86.5% | 86.5% | 82.4% | 83.6% | 88.1% | 82.6% | 82.5% | 81.6% | 86.1% | 84.1% | 84.3% | 95% | 93.9% | 82.8% | 85.1% | 81.8% | 89.3% | 83.2% | 80.2% | 82.8%
3 | CN[C@@H]1C[C@H]2O[C@@](C)([C@@H]1OC)n1c3ccccc3c3c4c(c5c6ccccc6n2c5c31)C(=O)N[C@H]4O | 80.5% | 86.5% | 85.5% | 89.3% | 84.7% | 75.9% | 63.7% | 22.5% | 16.8% | 23.2% | 7.88% | 80% | 78% | 83.8% | 84.2% | 78.4% | 63.4% | 44.5% | 12.8% | 12.8% | 14.8% | 15% | 84.7% | 90.4% | 85.9% | 85.8% | 81.2% | 55.4% | 62% | 29% | 14% | 17.7% | 11.5%
4 | Cc1cc(Cl)ccc1OCCCC(=O)NO | 102% | 105% | 105% | 116% | 106% | 105% | 101% | 98.6% | 78.3% | 15% | 3.84% | 97.8% | 102% | 108% | 110% | 101% | 98.2% | 99.4% | 81.2% | 57.9% | 17.4% | 3.91% | 113% | 104% | 108% | 111% | 111% | 102% | 100% | 35.9% | 37.2% | 5.67% | 3.42%
5 | CN[S+](=O)([O-])CCc1ccc2[nH]cc(C3CCN(C)CC3)c2c1 | 95.6% | 98.2% | 99.7% | 99.5% | 101% | 103% | 108% | 102% | 112% | 103% | 105% | 91.6% | 91.6% | 84.7% | 96% | 101% | 100% | 101% | 107% | 102% | 98% | 101% | 87.8% | 94.2% | 96.4% | 94.4% | 99.9% | 99% | 107% | 96.3% | 97.4% | 101% | 98.9%
6 | Cc1ccc(C(=O)c2cc(O)c(O)c([N+](=O)[O-])c2)cc1 | 93.6% | 93.5% | 95.5% | 103% | 101% | 104% | 104% | 102% | 90.9% | 101% | 105% | 90.2% | 88.2% | 85.9% | 85.8% | 102% | 103% | 95.1% | 94.6% | 84.3% | 102% | 102% | 82.5% | 93.4% | 95% | 91.8% | 89.3% | 93.6% | 99.2% | 91% | 84.7% | 89.5% | 91.4%
7 | O=C(CCCCCCC(=O)Nc1ccccc1)NO | 87.9% | 99.3% | 100% | 98.4% | 110% | 109% | 105% | 98.8% | 39% | 5.48% | 3.81% | 91.9% | 97% | 108% | 107% | 110% | 104% | 111% | 96.8% | 23.3% | 4.38% | 3.81% | 92.4% | 100% | 98.1% | 109% | 107% | 103% | 102% | 95.6% | 19.7% | 5.15% | 3.53%
